Experimental data as given in the kinase profiling compilation of Christmann-Franck et al. (2016).

Key:
Assay in all cases: radiometric filter-binding kinase assay
[1] = system: AKT1 (human), P31749 [S473D]
CHEK2 (human) = CHEK2 (human) (UniProt O96017)
CSNK1D (human) = CSNK1D (human) (UniProt P48730)
CaMK1 (human) = CaMK1 (human) (UniProt Q14012)
DYRK1A (human) = DYRK1A (human) (UniProt Q13627)
DYRK3 (human) = DYRK3 (human) (UniProt O43781)
EPHB2 (human) = EPHB2 (human) (UniProt P29323)
IKBKB (human) = IKBKB (human) (UniProt O14920)
Sequence of IKBKB (human) (O14920 whole entry, looked up): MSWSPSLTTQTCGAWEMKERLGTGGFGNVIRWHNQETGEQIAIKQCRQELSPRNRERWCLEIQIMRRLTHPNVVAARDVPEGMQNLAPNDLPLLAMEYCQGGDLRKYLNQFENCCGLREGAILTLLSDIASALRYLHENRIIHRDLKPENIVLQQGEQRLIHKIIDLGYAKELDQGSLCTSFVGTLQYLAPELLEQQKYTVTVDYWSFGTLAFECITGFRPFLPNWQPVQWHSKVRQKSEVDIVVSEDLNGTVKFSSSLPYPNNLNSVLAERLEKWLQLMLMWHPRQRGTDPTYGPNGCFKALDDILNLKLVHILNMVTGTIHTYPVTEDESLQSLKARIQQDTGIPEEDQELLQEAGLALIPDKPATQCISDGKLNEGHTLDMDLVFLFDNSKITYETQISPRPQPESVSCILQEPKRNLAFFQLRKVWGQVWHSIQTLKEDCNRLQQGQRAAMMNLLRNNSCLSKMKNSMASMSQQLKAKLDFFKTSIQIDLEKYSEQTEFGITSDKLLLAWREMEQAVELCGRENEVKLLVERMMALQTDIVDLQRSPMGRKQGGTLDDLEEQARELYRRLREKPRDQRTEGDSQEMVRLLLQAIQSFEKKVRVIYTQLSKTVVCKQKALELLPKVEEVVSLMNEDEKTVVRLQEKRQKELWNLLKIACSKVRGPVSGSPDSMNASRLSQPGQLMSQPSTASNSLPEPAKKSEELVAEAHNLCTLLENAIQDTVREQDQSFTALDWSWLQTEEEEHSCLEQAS

IKBKE (human) = IKBKE (human) (UniProt Q14164)
IRAK4 (human) = IRAK4 (human) (UniProt Q9NWZ3)
JAK2 JH1 JH2 (human) = JAK2 JH1 JH2 (human) (UniProt O60674)
MAP2K1 (human) = MAP2K1 (human) (UniProt Q02750)
MAP3K11 (human) = MAP3K11 (human) (UniProt Q16584)
Sequence of MAP3K11 (human) (Q16584 whole entry, looked up): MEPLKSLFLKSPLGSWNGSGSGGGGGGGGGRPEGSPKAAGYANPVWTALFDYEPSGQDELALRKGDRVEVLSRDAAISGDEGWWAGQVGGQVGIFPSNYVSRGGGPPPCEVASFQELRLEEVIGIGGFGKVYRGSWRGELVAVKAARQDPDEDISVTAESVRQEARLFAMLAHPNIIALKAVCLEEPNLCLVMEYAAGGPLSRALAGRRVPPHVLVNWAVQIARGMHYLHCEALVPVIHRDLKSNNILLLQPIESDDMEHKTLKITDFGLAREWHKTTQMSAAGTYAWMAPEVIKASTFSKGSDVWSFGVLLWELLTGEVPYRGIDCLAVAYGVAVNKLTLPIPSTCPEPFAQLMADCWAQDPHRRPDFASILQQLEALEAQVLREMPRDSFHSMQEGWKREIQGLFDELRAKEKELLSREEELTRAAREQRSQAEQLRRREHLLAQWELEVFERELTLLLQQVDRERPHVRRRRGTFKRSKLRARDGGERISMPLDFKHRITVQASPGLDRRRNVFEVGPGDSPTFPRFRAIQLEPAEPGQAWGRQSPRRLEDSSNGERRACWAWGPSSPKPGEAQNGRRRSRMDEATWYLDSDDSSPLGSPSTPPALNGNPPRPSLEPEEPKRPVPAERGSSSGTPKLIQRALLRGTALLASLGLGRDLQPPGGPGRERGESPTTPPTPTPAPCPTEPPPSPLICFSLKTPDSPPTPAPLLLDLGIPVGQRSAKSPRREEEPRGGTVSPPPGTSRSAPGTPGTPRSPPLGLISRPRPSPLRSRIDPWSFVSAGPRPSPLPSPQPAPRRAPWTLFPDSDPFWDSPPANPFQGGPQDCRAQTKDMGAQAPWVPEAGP

MAPK14 (human) = MAPK14 (human) (UniProt Q16539)
MAPK3 (human) = MAPK3 (human) (UniProt P27361)
MAPK8 (human) = MAPK8 (human) (UniProt P45983)
MAPK9 (human) = MAPK9 (human) (UniProt P45984)
Sequence of MAPK9 (human) (P45984 whole entry, looked up): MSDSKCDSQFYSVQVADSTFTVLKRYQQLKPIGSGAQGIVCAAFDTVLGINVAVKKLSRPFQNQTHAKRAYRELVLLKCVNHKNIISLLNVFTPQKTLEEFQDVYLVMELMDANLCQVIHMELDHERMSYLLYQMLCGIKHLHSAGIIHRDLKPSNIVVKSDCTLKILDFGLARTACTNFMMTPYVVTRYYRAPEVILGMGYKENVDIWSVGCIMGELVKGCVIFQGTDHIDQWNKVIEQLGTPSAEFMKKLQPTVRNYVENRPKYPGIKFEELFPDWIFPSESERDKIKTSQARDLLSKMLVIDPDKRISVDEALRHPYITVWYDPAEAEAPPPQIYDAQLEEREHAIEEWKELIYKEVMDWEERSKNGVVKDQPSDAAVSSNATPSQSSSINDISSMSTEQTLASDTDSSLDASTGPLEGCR

MAPKAPK2 (human) = MAPKAPK2 (human) (UniProt P49137)
MARK1 (human) = MARK1 (human) (UniProt Q9P0L2)
MARK2 (human) = MARK2 (human) (UniProt Q7KZI7)
MARK3 (human) = MARK3 (human) (UniProt P27448)
MKNK1 (human) = MKNK1 (human) (UniProt Q9BUB5)
MKNK2 (human) = MKNK2 (human) (UniProt Q9HBH9)
NEK2 (human) = NEK2 (human) (UniProt P51955)
Sequence of NEK2 (human) (P51955 whole entry, looked up): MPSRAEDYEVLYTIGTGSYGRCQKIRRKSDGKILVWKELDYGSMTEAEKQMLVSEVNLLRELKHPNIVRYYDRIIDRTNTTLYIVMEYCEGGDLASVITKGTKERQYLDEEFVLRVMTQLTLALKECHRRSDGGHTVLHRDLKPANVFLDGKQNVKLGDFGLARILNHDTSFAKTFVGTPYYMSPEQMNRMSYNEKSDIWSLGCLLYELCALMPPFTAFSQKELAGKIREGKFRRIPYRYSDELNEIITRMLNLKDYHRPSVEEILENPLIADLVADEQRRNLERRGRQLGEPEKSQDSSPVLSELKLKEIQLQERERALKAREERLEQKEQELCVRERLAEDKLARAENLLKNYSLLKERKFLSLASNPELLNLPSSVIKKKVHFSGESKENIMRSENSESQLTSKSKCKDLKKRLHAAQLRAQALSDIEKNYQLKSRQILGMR

NEK6 (human) = NEK6 (human) (UniProt Q9HC98)
Sequence of NEK6 (human) (Q9HC98 whole entry, looked up): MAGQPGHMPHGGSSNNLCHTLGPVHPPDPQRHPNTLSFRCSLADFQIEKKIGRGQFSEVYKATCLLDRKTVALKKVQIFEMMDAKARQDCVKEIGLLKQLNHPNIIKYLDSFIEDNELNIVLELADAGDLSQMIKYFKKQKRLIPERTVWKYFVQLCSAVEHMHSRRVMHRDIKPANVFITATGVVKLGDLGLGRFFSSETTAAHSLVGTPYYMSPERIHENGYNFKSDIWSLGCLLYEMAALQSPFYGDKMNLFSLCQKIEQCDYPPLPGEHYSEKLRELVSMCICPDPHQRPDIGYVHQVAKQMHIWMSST

NTRK1 (human) = NTRK1 (human) (UniProt P04629)
NUAK1 (human) = NUAK1 (human) (UniProt O60285)
PAK4 (human) = PAK4 (human) (UniProt O96013)
PIM1 (human) = PIM1 (human) (UniProt P11309)
Sequence of PIM1 (human) (P11309 whole entry, looked up): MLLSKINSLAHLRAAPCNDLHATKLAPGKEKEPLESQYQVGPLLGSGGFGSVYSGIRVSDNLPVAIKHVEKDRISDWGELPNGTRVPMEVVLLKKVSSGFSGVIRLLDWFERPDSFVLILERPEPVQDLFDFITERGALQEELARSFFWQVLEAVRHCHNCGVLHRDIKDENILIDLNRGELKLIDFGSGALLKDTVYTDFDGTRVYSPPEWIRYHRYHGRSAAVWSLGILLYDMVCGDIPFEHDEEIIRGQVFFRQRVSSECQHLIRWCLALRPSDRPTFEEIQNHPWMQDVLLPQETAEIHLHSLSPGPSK

RPS6KA1 KD1 KD2 (human) = RPS6KA1 KD1 KD2 (human) (UniProt Q15418)
[2] = system: RPS6KB1 (human), P23443 [T412E]
Sequence of RPS6KB1 (human), P23443 [T412E] (P23443 whole entry T412E, looked up): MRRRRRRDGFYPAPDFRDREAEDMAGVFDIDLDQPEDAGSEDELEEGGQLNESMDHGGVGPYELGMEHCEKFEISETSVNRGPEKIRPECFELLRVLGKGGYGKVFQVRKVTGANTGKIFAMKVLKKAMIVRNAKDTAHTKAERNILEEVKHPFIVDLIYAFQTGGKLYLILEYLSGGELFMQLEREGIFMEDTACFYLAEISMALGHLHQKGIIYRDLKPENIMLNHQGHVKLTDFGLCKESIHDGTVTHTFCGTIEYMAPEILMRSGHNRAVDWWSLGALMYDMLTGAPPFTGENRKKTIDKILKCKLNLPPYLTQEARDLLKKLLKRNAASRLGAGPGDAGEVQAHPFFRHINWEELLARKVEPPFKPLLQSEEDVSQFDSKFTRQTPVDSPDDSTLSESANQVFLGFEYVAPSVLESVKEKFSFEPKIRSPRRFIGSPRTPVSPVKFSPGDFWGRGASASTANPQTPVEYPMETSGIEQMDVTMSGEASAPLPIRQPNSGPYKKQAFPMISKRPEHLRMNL

[3] = molecular target: STK11 CAB39 STRADA (human) (UniProt Q9Y376+Q7RTN6+Q15831)
STK3 (human) = STK3 (human) (UniProt Q13188)
TBK1 (human) = TBK1 (human) (UniProt Q9UHD2)
TTK (human) = TTK (human) (UniProt P33981)

Sequence of DYRK3 (human) (O43781 whole entry, looked up): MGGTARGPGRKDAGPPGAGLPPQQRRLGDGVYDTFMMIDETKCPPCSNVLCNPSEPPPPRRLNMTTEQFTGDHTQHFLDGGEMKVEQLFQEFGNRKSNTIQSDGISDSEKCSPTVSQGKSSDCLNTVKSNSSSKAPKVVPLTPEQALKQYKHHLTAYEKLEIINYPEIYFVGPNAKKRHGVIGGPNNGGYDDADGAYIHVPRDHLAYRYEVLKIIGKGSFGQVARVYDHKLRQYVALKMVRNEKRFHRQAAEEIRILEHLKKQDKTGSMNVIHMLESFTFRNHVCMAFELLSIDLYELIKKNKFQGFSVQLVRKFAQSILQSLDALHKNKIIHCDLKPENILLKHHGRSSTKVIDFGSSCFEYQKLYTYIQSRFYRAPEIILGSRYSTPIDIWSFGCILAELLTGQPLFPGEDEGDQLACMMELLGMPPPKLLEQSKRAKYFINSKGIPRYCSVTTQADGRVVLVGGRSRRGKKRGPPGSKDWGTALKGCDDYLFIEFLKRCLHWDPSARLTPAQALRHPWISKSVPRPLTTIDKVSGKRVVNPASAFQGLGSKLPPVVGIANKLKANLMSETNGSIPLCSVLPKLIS
Sequence of CaMK1 (human) (Q14012 whole entry, looked up): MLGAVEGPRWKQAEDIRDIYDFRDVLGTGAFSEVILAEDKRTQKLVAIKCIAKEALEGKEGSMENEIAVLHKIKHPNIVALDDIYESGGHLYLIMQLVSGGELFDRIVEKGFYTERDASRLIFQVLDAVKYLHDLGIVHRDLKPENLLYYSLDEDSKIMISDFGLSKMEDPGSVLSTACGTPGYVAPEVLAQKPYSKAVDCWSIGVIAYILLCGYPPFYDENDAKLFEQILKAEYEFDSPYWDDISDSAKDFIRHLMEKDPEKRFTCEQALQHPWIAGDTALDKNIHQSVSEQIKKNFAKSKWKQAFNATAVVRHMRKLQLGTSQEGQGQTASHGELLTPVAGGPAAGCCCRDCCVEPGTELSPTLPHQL
Sequence of CSNK1D (human) (P48730 whole entry, looked up): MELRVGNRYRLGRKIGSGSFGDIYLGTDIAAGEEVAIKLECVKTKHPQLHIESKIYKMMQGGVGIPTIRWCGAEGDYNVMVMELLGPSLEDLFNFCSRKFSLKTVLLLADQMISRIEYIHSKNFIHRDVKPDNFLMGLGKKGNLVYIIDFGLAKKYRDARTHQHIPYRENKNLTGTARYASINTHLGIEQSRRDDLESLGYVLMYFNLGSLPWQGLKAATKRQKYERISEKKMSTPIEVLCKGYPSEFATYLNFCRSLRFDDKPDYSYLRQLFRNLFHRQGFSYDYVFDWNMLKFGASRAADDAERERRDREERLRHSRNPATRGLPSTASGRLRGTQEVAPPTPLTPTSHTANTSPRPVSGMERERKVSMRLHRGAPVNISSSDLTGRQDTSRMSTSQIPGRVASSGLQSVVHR

residual activity ([1]; compound 0.1 µM): 103%
residual activity ([1]; compound 1.0 µM): 96%
residual activity ([1]; compound 10.0 µM): 75%
residual activity (CHEK2 (human); compound 0.1 µM): 122%
residual activity (CHEK2 (human); compound 1.0 µM): 81%
residual activity (CHEK2 (human); compound 10.0 µM): 39%
residual activity (CSNK1D (human); compound 0.1 µM): 119%
residual activity (CSNK1D (human); compound 1.0 µM): 100%
residual activity (CSNK1D (human); compound 10.0 µM): 91%
residual activity (CaMK1 (human); compound 0.1 µM): 108%
residual activity (CaMK1 (human); compound 1.0 µM): 87%
residual activity (CaMK1 (human); compound 10.0 µM): 35%
residual activity (DYRK1A (human); compound 0.1 µM): 95%
residual activity (DYRK1A (human); compound 1.0 µM): 88%
residual activity (DYRK1A (human); compound 10.0 µM): 57%
residual activity (DYRK3 (human); compound 0.1 µM): 98%
residual activity (DYRK3 (human); compound 1.0 µM): 89%
residual activity (DYRK3 (human); compound 10.0 µM): 81%
residual activity (EPHB2 (human); compound 0.1 µM): 107%
residual activity (EPHB2 (human); compound 1.0 µM): 93%
residual activity (EPHB2 (human); compound 10.0 µM): 74%
residual activity (IKBKB (human); compound 0.1 µM): 112%
residual activity (IKBKB (human); compound 1.0 µM): 98%
residual activity (IKBKB (human); compound 10.0 µM): 89%
residual activity (IKBKE (human); compound 0.1 µM): 88%
residual activity (IKBKE (human); compound 1.0 µM): 90%
residual activity (IKBKE (human); compound 10.0 µM): 91%
residual activity (IRAK4 (human); compound 0.1 µM): 106%
residual activity (IRAK4 (human); compound 1.0 µM): 92%
residual activity (IRAK4 (human); compound 10.0 µM): 99%
residual activity (JAK2 JH1 JH2 (human); compound 1.0 µM): 84%
residual activity (JAK2 JH1 JH2 (human); compound 10.0 µM): 94%
residual activity (MAP2K1 (human); compound 0.1 µM): 83%
residual activity (MAP2K1 (human); compound 1.0 µM): 72%
residual activity (MAP2K1 (human); compound 10.0 µM): 90%
residual activity (MAP3K11 (human); compound 0.1 µM): 103%
residual activity (MAP3K11 (human); compound 1.0 µM): 97%
residual activity (MAP3K11 (human); compound 10.0 µM): 81%
residual activity (MAPK14 (human); compound 0.1 µM): 110%
residual activity (MAPK14 (human); compound 1.0 µM): 97%
residual activity (MAPK14 (human); compound 10.0 µM): 101%
residual activity (MAPK3 (human); compound 0.1 µM): 108%
residual activity (MAPK3 (human); compound 1.0 µM): 87%
residual activity (MAPK3 (human); compound 10.0 µM): 93%
residual activity (MAPK8 (human); compound 0.1 µM): 100%
residual activity (MAPK8 (human); compound 1.0 µM): 100%
residual activity (MAPK8 (human); compound 10.0 µM): 87%
residual activity (MAPK9 (human); compound 0.1 µM): 83%
residual activity (MAPK9 (human); compound 1.0 µM): 94%
residual activity (MAPK9 (human); compound 10.0 µM): 97%
residual activity (MAPKAPK2 (human); compound 0.1 µM): 99%
residual activity (MAPKAPK2 (human); compound 1.0 µM): 110%
residual activity (MAPKAPK2 (human); compound 10.0 µM): 88%
residual activity (MARK1 (human); compound 0.1 µM): 113%
residual activity (MARK1 (human); compound 1.0 µM): 88%
residual activity (MARK1 (human); compound 10.0 µM): 98%
residual activity (MARK2 (human); compound 0.1 µM): 102%
residual activity (MARK2 (human); compound 1.0 µM): 97%
residual activity (MARK2 (human); compound 10.0 µM): 94%
residual activity (MARK3 (human); compound 0.1 µM): 85%
residual activity (MARK3 (human); compound 1.0 µM): 99%
residual activity (MARK3 (human); compound 10.0 µM): 91%
residual activity (MKNK1 (human); compound 0.1 µM): 105%
residual activity (MKNK1 (human); compound 1.0 µM): 104%
residual activity (MKNK1 (human); compound 10.0 µM): 58%
residual activity (MKNK2 (human); compound 0.1 µM): 90%
residual activity (MKNK2 (human); compound 1.0 µM): 100%
residual activity (MKNK2 (human); compound 10.0 µM): 92%
residual activity (NEK2 (human); compound 0.1 µM): 95%
residual activity (NEK2 (human); compound 1.0 µM): 87%
residual activity (NEK2 (human); compound 10.0 µM): 87%
residual activity (NEK6 (human); compound 0.1 µM): 106%
residual activity (NEK6 (human); compound 1.0 µM): 98%
residual activity (NEK6 (human); compound 10.0 µM): 90%
residual activity (NTRK1 (human); compound 0.1 µM): 107%
residual activity (NTRK1 (human); compound 1.0 µM): 90%
residual activity (NTRK1 (human); compound 10.0 µM): 87%
residual activity (NUAK1 (human); compound 0.1 µM): 101%
residual activity (NUAK1 (human); compound 1.0 µM): 102%
residual activity (PAK4 (human); compound 0.1 µM): 75%
residual activity (PAK4 (human); compound 1.0 µM): 78%
residual activity (PAK4 (human); compound 10.0 µM): 66%
residual activity (PIM1 (human); compound 0.1 µM): 102%
residual activity (PIM1 (human); compound 1.0 µM): 93%
residual activity (PIM1 (human); compound 10.0 µM): 68%
residual activity (RPS6KA1 KD1 KD2 (human); compound 0.1 µM): 101%
residual activity (RPS6KA1 KD1 KD2 (human); compound 1.0 µM): 87%
residual activity (RPS6KA1 KD1 KD2 (human); compound 10.0 µM): 62%
residual activity ([2]; compound 0.1 µM): 84%
residual activity ([2]; compound 1.0 µM): 84%
residual activity ([2]; compound 10.0 µM): 84%
residual activity ([3]; compound 0.1 µM): 102%
residual activity ([3]; compound 1.0 µM): 85%
residual activity ([3]; compound 10.0 µM): 86%
residual activity (STK3 (human); compound 0.1 µM): 79%
residual activity (STK3 (human); compound 1.0 µM): 97%
residual activity (STK3 (human); compound 10.0 µM): 94%
residual activity (TBK1 (human); compound 0.1 µM): 88%
residual activity (TBK1 (human); compound 1.0 µM): 102%
residual activity (TBK1 (human); compound 10.0 µM): 89%
residual activity (TTK (human); compound 0.1 µM): 106%
residual activity (TTK (human); compound 1.0 µM): 105%
residual activity (TTK (human); compound 10.0 µM): 80%
Structure (SMILES): NC1(c2ccc(-c3nc4ccn5c(=O)[nH]nc5c4cc3-c3ccccc3)cc2)CCC1
